Reference: US20260015325A1, “ALKOXY HETEROARYL- CARBOXAMIDE OR THIOAMIDE COMPOUNDS” (SYNGENTA CROP PROTECTION AG, priority 2022, published 2026)

Each molecule was assayed on Myzus persicae (Green Peach Aphid) (assay: Myzus persicae (Green Peach Aphid): feeding/contact activity, sunflower leaf discs). Conditions: foliar, 144 h, application rate of 200 ppm, mixed ages on sprayed sunflower leaf discs, 6 days after infestation, read-out: mortality.
Format: in vivo
Protocol: Example B6: Myzus persicae (Green Peach Aphid): Feeding/Contact Activity
Sunflower leaf discs were placed onto agar in a 24-well microtiter plate and sprayed with aqueous test solutions prepared from 10′000 ppm DMSO stock solutions. After drying, the leaf discs were infested with an aphid population of mixed ages. The samples were assessed for mortality 6 days after infestation.

SMILES | mortality at 200 ppm [%]
Cc1ncc(OC[C@H](C)NS(=O)(=O)C(F)(F)F)cc1C(=O)NC(C)C [Compound P-34, N-isopropyl-2-methyl-5-[(2S)-2-(trifluoromethylsulfonylamino)propoxy]pyridine-3-carboxamide] | ≥ 80
CCNC(=O)c1cc(OC[C@H](C)NS(=O)(=O)C(F)(F)F)cnc1C [Compound P-36, N-ethyl-2-methyl-5-[(2S)-2-(trifluoromethylsulfonylamino)propoxy]pyridine-3-carboxamide] | ≥ 80
Cc1ncc(OC[C@H](C)NS(=O)(=O)C(F)(F)F)cc1C(=O)N(C)C1CC1 [Compound P-40, N-cyclopropyl-N,2-dimethyl-5-[(2S)-2-(trifluoromethylsulfonylamino)propoxy]pyridine-3-carboxamide] | ≥ 80
C[C@@H](COc1cnc(Cl)c(C(=O)NCC(=O)NCC2CC2)c1)NS(=O)(=O)C(F)(F)F [Compound P-53, 2-chloro-N-[2-(cyclopropylmethylamino)-2-oxo-ethyl]-5-[(2S)-2-(trifluoromethylsulfonylamino)propoxy]pyridine-3-carboxamide] | ≥ 80
C[C@@H](COc1cnc(Cl)c(C(=O)N(C)CC(F)F)c1)NS(=O)(=O)C(F)(F)F [Compound P-59, 2-chloro-N-(2,2-difluoroethyl)-N-methyl-5-[(2S)-2-(trifluoromethylsulfonylamino)propoxy]pyridine-3-carboxamide] | ≥ 80
Cc1cnc(OC[C@H](C)NS(=O)(=O)C(F)(F)F)cc1C(=O)N(C)C1(C#N)CC1 [Compound P-67, N-(1-cyanocyclopropyl)-N,5-dimethyl-2-[(2S)-2-(trifluoromethylsulfonylamino)propoxy]pyridine-4-carboxamide] | ≥ 80
CCc1ncsc1NC(=O)c1cc(OC[C@H](C)NS(=O)(=O)C(F)(F)F)ncc1C [Compound P-68, N-(4-ethylthiazol-5-yl)-5-methyl-2-[(2S)-2-(trifluoromethylsulfonylamino)propoxy]pyridine-4-carboxamide] | ≥ 80
Cc1cnc(OC[C@H](C)NS(=O)(=O)C(F)(F)F)cc1C(=O)NCc1ccc2c(c1)COC2 [Compound P-69, N-(1,3-dihydroisobenzofuran-5-ylmethyl)-5-methyl-2-[(2S)-2-(trifluoromethylsulfonylamino)propoxy]pyridine-4-carboxamide] | ≥ 80
COCCC#CC(C)(C)NC(=O)c1cc(OC[C@H](C)NS(=O)(=O)C(F)(F)F)ncc1C [Compound P-72, N-(5-methoxy-1,1-dimethyl-pent-2-ynyl)-5-methyl-2-[(2S)-2-(trifluoromethylsulfonylamino)propoxy]pyridine-4-carboxamide] | ≥ 80
Cc1cnc(OC[C@H](C)NS(=O)(=O)C(F)(F)F)cc1C(=O)NC(C)C1CC1 (stereo partly drawn) [Compound P-73, N-(1-cyclopropylethyl)-5-methyl-2-[(2S)-2-(trifluoromethylsulfonylamino)propoxy]pyridine-4-carboxamide] | ≥ 80
Cc1cnc(OC[C@H](C)NS(=O)(=O)C(F)(F)F)cc1C(=O)Nc1cccc(C#N)c1F [Compound P-75, N-(3-cyano-2-fluoro-phenyl)-5-methyl-2-[(2S)-2-(trifluoromethylsulfonylamino)propoxy]pyridine-4-carboxamide] | ≥ 80
Cc1cnc(OC[C@H](C)NS(=O)(=O)C(F)(F)F)cc1C(=O)NC(C)c1cccnc1 (stereo partly drawn) [Compound P-76, 5-methyl-N-[1-(3-pyridyl)ethyl]-2-[(2S)-2-(trifluoromethylsulfonylamino)propoxy]pyridine-4-carboxamide] | ≥ 80
